Reference: paper PMC3602595, “The Structure of HasB Reveals a New Class of TonB Protein Fold” (PLoS ONE, 2013)
Ends that are not written are not given here.

Experiments:
TonBCTD = biological target: T1, TonBCTD (Escherichia coli, UniProt P02929); assay: ITC interaction of TonBCTD with TonB box peptide; assay type: binding, E. coli
T1 construct: TonBCTD (TonB C-terminal domain); made in house
Protocol: Labeled and unlabeled HasBCTD (named HasB133 in our earlier publication) were prepared as described. TonBCTD of E. coli , previously named TonB116, was prepared as already reported. HasB mutations were introduced by PCR into the plasmid encoding HasBCTD wild type with the following pairs of oligonucleotides:
(§1) The TonB box peptides were synthesized with free acid C- and amine N-termini by Proteogenix (Strasbourg, France).
(§2) ITC was performed at 25°C using a MicroCal VP titration calorimeter (MicroCal-GE Healthcare) under the same conditions as described previously. The buffer was 20 mM sodium phosphate, pH 7, 50 mM NaCl for all the titrations, except for experiments carried out in the presence of HasR where 20 mM sodium phosphate, pH 7, 0.08% ZW 3–14 was used.
(§3) The heat of dilution of peptide/protein injections was determined either by injecting the ligand into the buffer alone or by injecting the ligand into the cell after the saturation of the protein binding site. The value obtained was subtracted from the heat of reaction to give the effective heat of binding. The resulting titration data were analyzed using Microcal-ORIGIN software package. The molar binding stoichiometry (N), association constant (Ka; Kd = 1/Ka) and enthalpy changes (ΔH) of binding were determined by fitting the binding isotherm to a model with one set of sites. Their values are the average of three experiments. HasBCTD/TonBCTD titrations with peptides were carried out by injecting 20–35 consecutive aliquots of 5–10 µL of a 1–1.5 mM peptide solution into the ITC cell containing 4 to 9×10^−5 M of protein solution of either HasBCTD or TonBCTD. For HasR titration experiments with HasB, 5–8×10^−5 M of HasBCTD wild type or mutants and 3–5 µM of HasR were used.

HasBCTD [1] = assay: ITC interaction of HasBCTD with HasR TonB box peptides; assay type: binding, Serratia marcescens
Protocol: as §1, §2
as §3, with “HasBCTD/TonBCTD titrations with peptides were carried out by injecting 20–35 consecutive aliquots of 5–10 µL of a 1–1.5 mM peptide solution into the ITC cell containing 4 to 9×10^−5 M of protein solution of either HasBCTD or TonBCTD.” left out

HasBCTD [2] = assay: NMR chemical shift perturbation of HasBCTD by HasR TonB box peptides; assay type: binding, Serratia marcescens; details: for chemical shift perturbation in 15N-1H HSQC spectra of HasBCTD: NMR HSQC, 293K, 50 mM sodium phosphate buffer, pH 7, 50 mM NaCl, 15% D2O/H2O, peptide:HasBCTD ratios 1∶2 to 4∶1, CSP >0.2 ppm considered large
Protocol: All NMR experiments were recorded at 293K on a Varian 600 MHz spectrometer with a cryogenically cooled triple resonance ^1H/(^15N/^13C) PFG probe. Proton chemical shifts were referenced to 2,2-dimethyl-2-silapentane-5-sulfonate (DSS) as 0 ppm. ^15N and ^13C chemical shifts were referenced indirectly to DSS. The pulse sequences were taken as implemented in the Varian BioPack. NMR data were processed using NMRPipe/NMRDraw and spectra were analyzed using NMRViewJ and CCPNMR Analysis, [24]. The HasB samples used for NMR experiments were from 0.35 to 0.7 mM in 50 mM sodium phosphate buffer, pH 7, 50 mM NaCl and 15% D2O/H2O (v/v).
CSP values of ^1H and ^15N amide of HasBCTD were obtained after interaction with the TonB box peptide by comparing the ^1H-^15N HSQC spectra of free and bound HasBCTD as previously explained. The samples were prepared in 50 mM sodium phosphate buffer, pH 7, 50 mM NaCl and 15% D2O/H20 (v/v). Lyophilized peptides were added to the HasBCTD solution at 1∶2, 1∶1, 2∶1 and 4∶1 ratios. CSP values greater than 0.2 ppm were considered as large. For proline residues no chemical shift change can be observed because of the lack of backbone amide proton.

[3] = Conformation of 21-mer peptide in solution by 2D TOCSY, NOESY and ROESY; assay type: physicochemical; details: free peptide, data not shown

T1 sequence (P02929 148-239): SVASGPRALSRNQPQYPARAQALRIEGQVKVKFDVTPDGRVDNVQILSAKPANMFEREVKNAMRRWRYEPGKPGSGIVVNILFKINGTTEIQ

Row | Sequence | affinity (association constant Ka) (TonBCTD; ITC, TonBCTD, 25°C, 20 mM sodium phosphate, pH 7, 50 mM NaCl, one set of sites, average of three experiments) | Kd (TonBCTD; ITC, TonBCTD, 25°C, 20 mM sodium phosphate, pH 7, 50 mM NaCl, Kd = 1/Ka) [µM] | interaction with TonBCTD (in words) (TonBCTD; same range of concentration as that used with HasBCTD) | interaction with HasBCTD (in words) (HasBCTD [1]; ITC and NMR CSP) | chemical shift perturbation in 15N-1H HSQC spectra of HasBCTD (HasBCTD [2]) | affinity constant (Ka) (HasBCTD [1]; ITC, HasBCTD, 25°C, 20 mM sodium phosphate, pH 7, 50 mM NaCl, one set of sites, average of three experiments, HasBCTD 9×10^−5 M, peptide 1.5 mM) [M⁻¹] | Kd (HasBCTD [1]; ITC, HasBCTD, 25°C, 20 mM sodium phosphate, pH 7, 50 mM NaCl, Kd = 1/Ka) [µM] | location of the most substantial CSP on HasBCTD (HasBCTD [2]; 15N HSQC, 21-mer peptide) | conformation in solution [3]
1 | ALDSLTVLGAGG [dodecamer peptide] | about 2×10^4 M^−1 | 50 | able to bind to TonBCTD | did not reveal any interaction with HasBCTD | no chemical shift perturbation could be observed |  |  |  | 
2 | GDGGALALDSLTVLGAGGNNA [21-mer peptide] |  |  |  |  | several CSP were observed | 40000 | 25 | especially along the strand β3 and on the helix H1 | unstructured in solution
